Reference: patent publication US20230017045A1, “PYRIDINE AND PYRIMIDINE CARBOXYLATE HERBICIDES AND METHODS OF USE THEREOF” (Dow AgroSciences LLC, priority 2017, published 2023)

The compounds below were run on test plant species (assay: Post-emergent herbicidal activity test (greenhouse, foliar spray, visual growth reduction)). Settings: post-emergence, 336 h, ECHCG: barnyardgrass (Echinochloa crus-galli), 140 g ai/ha, 14 days after application, read-out: Visual Growth Reduction (%) 14 Days After Application, ECHCG.
Assay type: in vivo
Method: Post-emergent Test: Seeds or nutlets of the desired test plant species were planted in Sun Gro Metro-Mix® 360 planting mixture, which typically has a pH of 6.0 to 6.8 and an organic matter content of about 30 percent, in plastic pots with a surface area of 64 square centimeters. In some aspects, to ensure good germination and healthy plants, a fungicide treatment and/or other chemical or physical treatment was applied. The plants were grown for 7-21 d in a greenhouse with an approximate 15 h photoperiod which was maintained at 23-29° C. during the day and 22-28° C. during the night. Nutrients and water were added on a regular basis and supplemental lighting was provided with overhead metal halide 1000-Watt lamps as necessary. Plants were used for testing when they reached the first or second true leaf stage. A weighed amount, determined by the highest rate to be tested, of each test compound was placed in a 25 mL glass vial and was dissolved in 4 mL of a 97:3 v/v mixture of acetone and DMSO to obtain concentrated stock solutions. […] The concentrated stock solutions obtained were diluted with 20 mL of an aqueous mixture containing acetone, water, isopropyl alcohol, DMSO, […] crop oil concentrate, and X-77 surfactant in a 48.5:39:10:1.5:1.0:0.02 v/v ratio to obtain spray solutions containing the application rate. Compound requirements are based upon a 12 mL application volume at a rate of 187 liters per hectare (L/ha). Formulated compounds were applied to the plant material with an overhead Mandel track sprayer equipped with […] nozzles calibrated to deliver 187 L/ha over an application area of 0.64 square meters at a spray height of 18 inches (43 cm) above the average plant canopy height. Control plants were sprayed in the same manner with the solvent blank. The treated plants and control plants were placed in a greenhouse as described above and watered by subirrigation to prevent wash-off of the test compounds. After 14 d, the condition of the test plants as compared with that of the nontreated and control plants was determined visually and scored on a scale of 0 to 100 percent where 0 corresponds to no injury and 100 corresponds to complete control. In the reporting of the results, Table A: Percent Growth Reduction Conversion Table was used.

SMILES | pest or weed control at 140 g/ha
COC(=O)c1nc(-c2ccc(C=O)c(F)c2OC)c(F)cc1Cl [F357, methyl 3-chloro-5-fluoro-6-(3-fluoro-4-formyl-2-methoxyphenyl)picolinate] | 0 to 29%
COC(=O)c1nc(-c2ccc(C(F)(F)F)c(Cl)c2)c(F)cc1Cl [F305, Methyl 3-chloro-6-(3-chloro-4-(trifluoromethyl)phenyl)-5-fluoropicolinate] | 0 to 29%
COC(=O)c1nc(-c2cccc(Cl)c2F)ccc1Cl [F277, Methyl 3-chloro-6-(3-chloro-2-fluorophenyl) picolinate] | 0 to 29%
COC(=O)c1nc(-c2ccc(OC(F)F)cc2OC)c(F)cc1Cl [F161, Methyl 3-chloro-6-4-(difluoromethoxy)-2-methoxyphenyl)-5-fluoropicolinate] | 85 to 94%

Same assay, conditions: post-emergence, 336 h, IPOHE: ivy-leaf morning glory (Ipomoea hederacea), 140 g ai/ha, 14 days after application, read-out: Visual Growth Reduction (%) 14 Days After Application, IPOHE

SMILES | pest or weed control at 140 g/ha
COC(=O)c1nc(-c2ccc(C=O)c(F)c2OC)c(F)cc1Cl [F357, methyl 3-chloro-5-fluoro-6-(3-fluoro-4-formyl-2-methoxyphenyl)picolinate] | 0 to 29%
COC(=O)c1nc(-c2ccc(C(F)(F)F)c(Cl)c2)c(F)cc1Cl [F305, Methyl 3-chloro-6-(3-chloro-4-(trifluoromethyl)phenyl)-5-fluoropicolinate] | 95 to 100%
COC(=O)c1nc(-c2cccc(Cl)c2F)ccc1Cl [F277, Methyl 3-chloro-6-(3-chloro-2-fluorophenyl) picolinate] | 0 to 29%
COC(=O)c1nc(-c2ccc(OC(F)F)cc2OC)c(F)cc1Cl [F161, Methyl 3-chloro-6-4-(difluoromethoxy)-2-methoxyphenyl)-5-fluoropicolinate] | 95 to 100%

Same assay, conditions: post-emergence, 336 h, KCHSC: kochia (Bassia scoparia), 140 g ai/ha, 14 days after application, read-out: Visual Growth Reduction (%) 14 Days After Application, KCHSC

SMILES | pest or weed control at 140 g/ha
COC(=O)c1nc(-c2ccc(C=O)c(F)c2OC)c(F)cc1Cl [F357, methyl 3-chloro-5-fluoro-6-(3-fluoro-4-formyl-2-methoxyphenyl)picolinate] | 0 to 29%
COC(=O)c1nc(-c2ccc(C(F)(F)F)c(Cl)c2)c(F)cc1Cl [F305, Methyl 3-chloro-6-(3-chloro-4-(trifluoromethyl)phenyl)-5-fluoropicolinate] | 0 to 29%
COC(=O)c1nc(-c2cccc(Cl)c2F)ccc1Cl [F277, Methyl 3-chloro-6-(3-chloro-2-fluorophenyl) picolinate] | 0 to 29%
COC(=O)c1nc(-c2ccc(OC(F)F)cc2OC)c(F)cc1Cl [F161, Methyl 3-chloro-6-4-(difluoromethoxy)-2-methoxyphenyl)-5-fluoropicolinate] | 85 to 94%

Same assay, conditions: post-emergence, 336 h, ORYSA: rice (Oryza sativa), 140 g ai/ha, 14 days after application, read-out: Visual Growth Reduction (%) 14 Days After Application, ORYSA

SMILES | pest or weed control at 140 g/ha
COC(=O)c1nc(-c2ccc(C=O)c(F)c2OC)c(F)cc1Cl [F357, methyl 3-chloro-5-fluoro-6-(3-fluoro-4-formyl-2-methoxyphenyl)picolinate] | 0 to 29%
COC(=O)c1nc(-c2ccc(C(F)(F)F)c(Cl)c2)c(F)cc1Cl [F305, Methyl 3-chloro-6-(3-chloro-4-(trifluoromethyl)phenyl)-5-fluoropicolinate] | 0 to 29%
COC(=O)c1nc(-c2cccc(Cl)c2F)ccc1Cl [F277, Methyl 3-chloro-6-(3-chloro-2-fluorophenyl) picolinate] | 0 to 29%
COC(=O)c1nc(-c2ccc(OC(F)F)cc2OC)c(F)cc1Cl [F161, Methyl 3-chloro-6-4-(difluoromethoxy)-2-methoxyphenyl)-5-fluoropicolinate] | 0 to 29%

Same assay, conditions: post-emergence, 336 h, SETFA: giant foxtail (Setaria faberi), 140 g ai/ha, 14 days after application, read-out: Visual Growth Reduction (%) 14 Days After Application, SETFA

SMILES | pest or weed control at 140 g/ha
COC(=O)c1nc(-c2ccc(C=O)c(F)c2OC)c(F)cc1Cl [F357, methyl 3-chloro-5-fluoro-6-(3-fluoro-4-formyl-2-methoxyphenyl)picolinate] | 0 to 29%
COC(=O)c1nc(-c2ccc(C(F)(F)F)c(Cl)c2)c(F)cc1Cl [F305, Methyl 3-chloro-6-(3-chloro-4-(trifluoromethyl)phenyl)-5-fluoropicolinate] | 0 to 29%
COC(=O)c1nc(-c2cccc(Cl)c2F)ccc1Cl [F277, Methyl 3-chloro-6-(3-chloro-2-fluorophenyl) picolinate] | 0 to 29%
COC(=O)c1nc(-c2ccc(OC(F)F)cc2OC)c(F)cc1Cl [F161, Methyl 3-chloro-6-4-(difluoromethoxy)-2-methoxyphenyl)-5-fluoropicolinate] | 85 to 94%

Same assay, conditions: post-emergence, 336 h, SORVU: grain sorghum (Sorghum vulgare), 140 g ai/ha, 14 days after application, read-out: Visual Growth Reduction (%) 14 Days After Application, SORVU

SMILES | pest or weed control at 140 g/ha
COC(=O)c1nc(-c2ccc(C=O)c(F)c2OC)c(F)cc1Cl [F357, methyl 3-chloro-5-fluoro-6-(3-fluoro-4-formyl-2-methoxyphenyl)picolinate] | 0 to 29%
COC(=O)c1nc(-c2ccc(C(F)(F)F)c(Cl)c2)c(F)cc1Cl [F305, Methyl 3-chloro-6-(3-chloro-4-(trifluoromethyl)phenyl)-5-fluoropicolinate] | 75 to 84%
COC(=O)c1nc(-c2cccc(Cl)c2F)ccc1Cl [F277, Methyl 3-chloro-6-(3-chloro-2-fluorophenyl) picolinate] | 0 to 29%
COC(=O)c1nc(-c2ccc(OC(F)F)cc2OC)c(F)cc1Cl [F161, Methyl 3-chloro-6-4-(difluoromethoxy)-2-methoxyphenyl)-5-fluoropicolinate] | 95 to 100%

Same assay, conditions: post-emergence, 336 h, STEME: common chickweed (Stellaria media), 140 g ai/ha, 14 days after application, read-out: Visual Growth Reduction (%) 14 Days After Application, STEME

SMILES | pest or weed control at 140 g/ha
COC(=O)c1nc(-c2ccc(C=O)c(F)c2OC)c(F)cc1Cl [F357, methyl 3-chloro-5-fluoro-6-(3-fluoro-4-formyl-2-methoxyphenyl)picolinate] | 0 to 29%
COC(=O)c1nc(-c2ccc(C(F)(F)F)c(Cl)c2)c(F)cc1Cl [F305, Methyl 3-chloro-6-(3-chloro-4-(trifluoromethyl)phenyl)-5-fluoropicolinate] | 0 to 29%
COC(=O)c1nc(-c2cccc(Cl)c2F)ccc1Cl [F277, Methyl 3-chloro-6-(3-chloro-2-fluorophenyl) picolinate] | 0 to 29%
COC(=O)c1nc(-c2ccc(OC(F)F)cc2OC)c(F)cc1Cl [F161, Methyl 3-chloro-6-4-(difluoromethoxy)-2-methoxyphenyl)-5-fluoropicolinate] | 30 to 44%

Same assay, conditions: post-emergence, 336 h, TRZAS: wheat, spring (Triticum aestivum), 140 g ai/ha, 14 days after application, read-out: Visual Growth Reduction (%) 14 Days After Application, TRZAS

SMILES | pest or weed control at 140 g/ha
COC(=O)c1nc(-c2ccc(C=O)c(F)c2OC)c(F)cc1Cl [F357, methyl 3-chloro-5-fluoro-6-(3-fluoro-4-formyl-2-methoxyphenyl)picolinate] | 0 to 29%
COC(=O)c1nc(-c2ccc(C(F)(F)F)c(Cl)c2)c(F)cc1Cl [F305, Methyl 3-chloro-6-(3-chloro-4-(trifluoromethyl)phenyl)-5-fluoropicolinate] | 0 to 29%
COC(=O)c1nc(-c2cccc(Cl)c2F)ccc1Cl [F277, Methyl 3-chloro-6-(3-chloro-2-fluorophenyl) picolinate] | 0 to 29%
COC(=O)c1nc(-c2ccc(OC(F)F)cc2OC)c(F)cc1Cl [F161, Methyl 3-chloro-6-4-(difluoromethoxy)-2-methoxyphenyl)-5-fluoropicolinate] | 60 to 74%

Same assay, conditions: post-emergence, 336 h, blackgrass (Alopecurus myosuroides), 14 Days After Application, 140 g ai/ha, read-out: Visual Growth Reduction (%) ALOMY

SMILES | pest or weed control at 140 g/ha
COC(=O)c1nc(-c2ccc(C=O)c(F)c2OC)c(F)cc1Cl [F357, methyl 3-chloro-5-fluoro-6-(3-fluoro-4-formyl-2-methoxyphenyl)picolinate] | 0 to 29%
COC(=O)c1nc(-c2ccc(C(F)(F)F)c(Cl)c2)c(F)cc1Cl [F305, Methyl 3-chloro-6-(3-chloro-4-(trifluoromethyl)phenyl)-5-fluoropicolinate] | 0 to 29%
COC(=O)c1nc(-c2cccc(Cl)c2F)ccc1Cl [F277, Methyl 3-chloro-6-(3-chloro-2-fluorophenyl) picolinate] | 0 to 29%

Same assay, conditions: post-emergence, 336 h, canada thistle (Cirsium arvense), 14 Days After Application, 140 g ai/ha, read-out: Visual Growth Reduction (%) CIRAR

SMILES | pest or weed control at 140 g/ha
COC(=O)c1nc(-c2ccc(C=O)c(F)c2OC)c(F)cc1Cl [F357, methyl 3-chloro-5-fluoro-6-(3-fluoro-4-formyl-2-methoxyphenyl)picolinate] | 0 to 29%
COC(=O)c1nc(-c2ccc(C(F)(F)F)c(Cl)c2)c(F)cc1Cl [F305, Methyl 3-chloro-6-(3-chloro-4-(trifluoromethyl)phenyl)-5-fluoropicolinate] | 0 to 29%
COC(=O)c1nc(-c2cccc(Cl)c2F)ccc1Cl [F277, Methyl 3-chloro-6-(3-chloro-2-fluorophenyl) picolinate] | 0 to 29%

Same assay, conditions: post-emergence, 336 h, crabgrass (Digitaria sanguinalis), 14 Days After Application, 140 g ai/ha, read-out: Visual Growth Reduction (%) DIGSA

SMILES | pest or weed control at 140 g/ha
COC(=O)c1nc(-c2ccc(C=O)c(F)c2OC)c(F)cc1Cl [F357, methyl 3-chloro-5-fluoro-6-(3-fluoro-4-formyl-2-methoxyphenyl)picolinate] | 0 to 29%
COC(=O)c1nc(-c2ccc(C(F)(F)F)c(Cl)c2)c(F)cc1Cl [F305, Methyl 3-chloro-6-(3-chloro-4-(trifluoromethyl)phenyl)-5-fluoropicolinate] | 85 to 94%
COC(=O)c1nc(-c2cccc(Cl)c2F)ccc1Cl [F277, Methyl 3-chloro-6-(3-chloro-2-fluorophenyl) picolinate] | 0 to 29%

Same assay, conditions: post-emergence, 336 h, lambsquarters (Chenopodium album), 14 Days After Application, 140 g ai/ha, read-out: Visual Growth Reduction (%) CHEAL

SMILES | pest or weed control at 140 g/ha
COC(=O)c1nc(-c2ccc(C=O)c(F)c2OC)c(F)cc1Cl [F357, methyl 3-chloro-5-fluoro-6-(3-fluoro-4-formyl-2-methoxyphenyl)picolinate] | 0 to 29%
COC(=O)c1nc(-c2ccc(C(F)(F)F)c(Cl)c2)c(F)cc1Cl [F305, Methyl 3-chloro-6-(3-chloro-4-(trifluoromethyl)phenyl)-5-fluoropicolinate] | 45 to 59%
COC(=O)c1nc(-c2cccc(Cl)c2F)ccc1Cl [F277, Methyl 3-chloro-6-(3-chloro-2-fluorophenyl) picolinate] | 0 to 29%

Same assay, conditions: post-emergence, 336 h, redroot pigweed (Amaranthus retroflexus), 14 Days After Application, 140 g ai/ha, read-out: Visual Growth Reduction (%) AMARE

SMILES | pest or weed control at 140 g/ha
COC(=O)c1nc(-c2ccc(C=O)c(F)c2OC)c(F)cc1Cl [F357, methyl 3-chloro-5-fluoro-6-(3-fluoro-4-formyl-2-methoxyphenyl)picolinate] | 0 to 29%
COC(=O)c1nc(-c2ccc(C(F)(F)F)c(Cl)c2)c(F)cc1Cl [F305, Methyl 3-chloro-6-(3-chloro-4-(trifluoromethyl)phenyl)-5-fluoropicolinate] | 30 to 44%
COC(=O)c1nc(-c2cccc(Cl)c2F)ccc1Cl [F277, Methyl 3-chloro-6-(3-chloro-2-fluorophenyl) picolinate] | 0 to 29%

Same assay, conditions: post-emergence, 336 h, wild oat (Avena fatua), 14 Days After Application, 140 g ai/ha, read-out: Visual Growth Reduction (%) AVEFA

SMILES | pest or weed control at 140 g/ha
COC(=O)c1nc(-c2ccc(C=O)c(F)c2OC)c(F)cc1Cl [F357, methyl 3-chloro-5-fluoro-6-(3-fluoro-4-formyl-2-methoxyphenyl)picolinate] | 0 to 29%
COC(=O)c1nc(-c2ccc(C(F)(F)F)c(Cl)c2)c(F)cc1Cl [F305, Methyl 3-chloro-6-(3-chloro-4-(trifluoromethyl)phenyl)-5-fluoropicolinate] | 0 to 29%
COC(=O)c1nc(-c2cccc(Cl)c2F)ccc1Cl [F277, Methyl 3-chloro-6-(3-chloro-2-fluorophenyl) picolinate] | 0 to 29%

Same assay, conditions: post-emergence, 336 h, yellow nutsedge (Cyperus esculentus), 14 Days After Application, 140 g ai/ha, read-out: Visual Growth Reduction (%) CYPES

SMILES | pest or weed control at 140 g/ha
COC(=O)c1nc(-c2ccc(C=O)c(F)c2OC)c(F)cc1Cl [F357, methyl 3-chloro-5-fluoro-6-(3-fluoro-4-formyl-2-methoxyphenyl)picolinate] | 0 to 29%
COC(=O)c1nc(-c2ccc(C(F)(F)F)c(Cl)c2)c(F)cc1Cl [F305, Methyl 3-chloro-6-(3-chloro-4-(trifluoromethyl)phenyl)-5-fluoropicolinate] | 45 to 59%
COC(=O)c1nc(-c2cccc(Cl)c2F)ccc1Cl [F277, Methyl 3-chloro-6-(3-chloro-2-fluorophenyl) picolinate] | 0 to 29%
